Measurements as given in PMC9820444, “Design and Synthesis of Acridine-Triazole and Acridine-Thiadiazole Derivatives and Their Inhibitory Effect against Cancer Cells” (International Journal of Molecular Sciences, 2022).
Read-outs that look alike come from different tables or passages of the source. Marks after values point to notes of the source that are not given here.

Tests used:
[1] = system: human foreskin fibroblasts (HFF); test: MTT antiproliferative assay, HFF; type: cell-based; settings: read-out: Effect against cell viability (IC50), HFF
Procedure: (§1) All newly synthesized acridinyl derivatives (4–6) were screened for their anticancer activities in comparison to the reference compounds, 5-FU and cis-platinum. Compounds 4–6 were tested for their in vitro antitumor activities against HFF, MGC-803, BEL-7404, NCI-H460, and T24 tumor cell lines, and human normal liver cells (LO2), and the results are shown in Table 1. Most of the compounds had strong selective potency against MGC-803 and T24 cancer cells. […] In the T24 cell line assay, many compounds, especially the series of compound 4, had significant activity against T24. This implies that there is a significant increase in potency after the introduction of the aroyl thiourea group. […] To our delight, most 1,2,4-triazolethiones (5) and 1,2,4-thiadiazoles (6) have low toxicity to LO2 compared with the positive control.
(§2) Test samples, including compounds 4–6 and commercial classical anticancer drugs (5-FU and cis-platinum), were screened for their anti-cancer activity against HFF human foreskin fibroblast cells, MGC-803 human gastric cancer cells, BEL-7404 human hepatocellular carcinoma cells, NCI-H460 human large cell carcinoma cells, and T24 human bladder carcinoma cells using the 3-(4,5-dimethylthiazol-2-yl)-2,5-diphenyltetrazoliumbromide (MTT) assay method cited in the literature. The initial concentration of all the test samples was 100 μg/mL, which was serially diluted in complete medium with ten-fold dilutions to give six concentrations per compound. Their cytotoxicity was determined in 96-well flat bottomed microtiter plates. All the test samples were tested in triplicate. The results were expressed as the drug concentration that inhibited cell growth by 50% as compared to the controls (IC50). The IC50 values were calculated from regression lines obtained from the percent cell growth inhibition plotted as a function of the logarithm of the dose.

[2] = system: human gastric cancer cells-803 (MGC-803); test: MTT antiproliferative assay, MGC-803; type: cell-based; settings: read-out: Effect against cell viability (IC50), MGC-803
Procedure: as §1, §2

[3] = system: hepatocellular carcinoma bel-7404 (BEL-7404); test: MTT antiproliferative assay, BEL-7404; type: cell-based, human; settings: read-out: Effect against cell viability (IC50), BEL-7404
Procedure: as §1, §2

[4] = system: large cell lung cancer cells (NCI-H460); test: MTT antiproliferative assay, NCI-H460; type: cell-based, human; settings: read-out: Effect against cell viability (IC50), NCI-H460
Procedure: as §1, §2

[5] = system: bladder cancer cells (T24); test: MTT antiproliferative assay, T24; type: cell-based, human; settings: read-out: Effect against cell viability (IC50), T24
Procedure: as §1, §2

[6] = system: human normal liver cells (LO2); test: Cytotoxicity against normal liver cells LO2; type: cell-based; settings: MTT, read-out: Effect against cell viability (IC50), LO2
Procedure: as §1, §2

zebrafish embryos = system: zebrafish embryos; set-up: mortality rate of zebrafish embryos: dose or concentration left out as unconfirmed; settings: for MAR (malformation rate) / MOR (mortality rate): zebrafish embryos 72 hpf; for total mortality and malformation rate: zebrafish embryos
Procedure: In this experiment, 2% DMSO was used to dissolve the target products, and the abnormal rate (MAR) and mortality rate (MOR) of zebrafish embryos (72 hpf) were used for statistics.
The zebrafish embryos were collected at 6 hpf and randomly divided into naive control (embryos maintained in distilled water), vehicle control (embryos treated with 2% DMSO), and drug groups. Stock solutions of all drugs were prepared in 2% DMSO as a solubilizing agent and diluted to three concentrations (0.5 mg/mL, 1 mg/mL, and 2 mg/mL). Each group had 20 embryos per test concentration. […] Each compound was evaluated in three independent biological experiments.

| Compound | IC50 ([2]; Homo sapiens, MGC-803, MTT) [µM] | IC50 ([3]; Homo sapiens) [µM] | IC50 ([4]; Homo sapiens) [µM] | IC50 ([5]; Homo sapiens) [µM] | melting point [°C] | IC50 [1] [µM] | IC50 ([2]; MTT) [µM] | IC50 [3] [µM] | IC50 [4] [µM] | IC50 [5] [µM] | IC50 [6] [µM] | MAR (malformation rate) (zebrafish embryos; 1 mg/mL) | MOR (mortality rate) (zebrafish embryos; 1 mg/mL) | MAR (malformation rate) (zebrafish embryos; 1.5 mg/mL) | MOR (mortality rate) (zebrafish embryos; 1.5 mg/mL) | MAR (malformation rate) (zebrafish embryos; 2 mg/mL) | MOR (mortality rate) (zebrafish embryos; 2 mg/mL) | IC50 ([1]; Homo sapiens, Fibroblast) [µM] | IC50 ([6]; Homo sapiens) [µM] | further results |
| --- | --- | --- | --- | --- | --- | --- | --- | --- | --- | --- | --- | --- | --- | --- | --- | --- | --- | --- | --- | --- |
| COc1ccc2nc3ccccc3c(NC(=S)NNC(=O)c3ccccc3)c2c1 [4b, 1-2′-methoxyl acridinyl-3-benzoyl thiosemicarbazides] |  |  |  |  |  | 72.6 ± 3.57 | 14.5 ± 2.06 | 25.8 ± 2.83 | 42.3 ± 2.15 | 29.8 ± 2.85 | 34.4 ± 2.05 | 70% ^a | 15% ^a | 70% ^a | 15% ^a | 55% ^a | 40% ^a |  |  | total mortality and malformation rate (zebrafish embryos; 2.0 mg.L^−1): 100% |
| COc1ccc(C(=O)NNC(=S)Nc2c3ccccc3nc3ccc(OC)cc23)cc1 [4c, 1-2′-methoxyl acridinyl-3-4′-methoxy benzoyl thiosemicarbazides] |  |  |  |  |  | 63.7 ± 2.59 | 21 ± 1.55 | 13.3 ± 1.37 | 52.4 ± 3.67 | 11.2 ± 2.51 | 19.4 ± 1.69 | 50% ^a | 45% ^a | 60% ^a | 25% ^a | 50% ^a | 35% ^a |  |  |  |
| COc1ccc2nc3ccccc3c(NC(=S)NNC(=O)c3ccc([N+](=O)[O-])cc3)c2c1 [4d, 1-2’-methoxyl acridinyl-3-4′-nitro benzoyl thiosemicarbazides] |  |  |  |  |  | 65.3 ± 3.82 | 35 ± 3.57 | 43.9 ± 2.59 | 40.5 ± 4.52 | 13 ± 1.64 | 25.1 ± 1.33 |  |  |  |  |  |  |  |  |  |
| Cc1ccc2[nH]c3ccccc3c(=NC(=S)NNC(=O)c3ccncc3)c2c1 [4f, 1-2′-methyl acridinyl-3-4′-pyridinamide thiourea] |  |  |  |  |  | 55.2 ± 1.36 | 11.2 ± 0.96 | 34.4 ± 2.24 | 53.7 ± 3.04 | 9.66 ± 1.54 | 10.1 ± 0.96 | 60% ^b | 10% ^b | 80% ^b | 20% ^b | 15% ^b | 85% ^b |  |  | total mortality and malformation rate (zebrafish embryos; 2.0 mg.L^−1): 100% |
| Cc1ccc2nc3ccccc3c(NC(=S)NNC(=O)c3ccccc3)c2c1 [4g, 1-2′-methyl acridinyl-3-benzoyl thiosemicarbazides] |  |  |  |  |  | 70.1 ± 3.97 | 13.5 ± 1.59 | 20.2 ± 4.13 | 39 ± 2.05 | 25.8 ± 1.51 | 14.3 ± 1.52 |  |  |  |  |  |  |  |  |  |
| Cc1ccc2nc3ccccc3c(NC(=S)NNC(=O)c3ccc([N+](=O)[O-])cc3)c2c1 [4i, 1-2′-methyl acridinyl-3-4’-nitro benzoyl thiosemicarbazides] |  |  |  |  |  | 60.7 ± 2.31 | 22.3 ± 1.35 | 23.3 ± 1.33 | 60.4 ± 2.95 | 9.89 ± 1.45 | 11.8 ± 1.38 |  |  |  |  |  |  |  |  |  |
| Cc1ccc2nc3ccccc3c(NC(=S)NNC(=O)c3ccc(Cl)cc3)c2c1 [4j, 1-2′-methyl acridinyl-3-4′-chloro benzoyl thiosemicarbazides] |  |  |  |  |  | 61.5 ± 1.85 | 16.4 ± 1.56 | 24.4 ± 3.53 | 32.2 ± 2.36 | 19.9 ± 1.32 | 20.5 ± 1.39 |  |  |  |  |  |  |  |  |  |
| O=c1[nH]cc(F)c(=O)[nH]1 [5-FU, 5-fluorouracil, reference compound] | 30.4 ± 2.87 | 34.5 ± 1.18 | 44 ± 0.54 | 32 ± 1.23 |  |  |  |  |  |  |  |  |  |  |  |  |  | 25.4 ± 1.27 | 40.1 ± 1.65 |  |
| COC1=CC2C(=Nc3nnc(-c4ccncc4)s3)c3ccccc3NC2C=C1 (stereo not shown) [6a, 7-methoxy-N-(5-(pyridin-4-yl)-1,3,4-thiadiazol-2-yl)-10,10a-dihydroacridin-9(8aH)-imine] | 14.3 ± 1.29 | 19.2 ± 1.3 | 25.3 ± 3.57 | 10.2 ± 0.96 |  |  |  |  |  |  |  | 15% ^b | 0% | 95% ^b | 0% | 90% ^b | 5% ^b | 68.8 ± 1.87 | 40.2 ± 2.74 |  |
| COC1=CC2C(=Nc3nnc(-c4ccc(Cl)cc4)s3)c3ccccc3NC2C=C1 (stereo not shown) [6e, 7-methoxy-N-(5-(4-chlorophenyl)-1,3,4-thiadiazol-2-yl)-10,10a-dihydroacridin-9(8aH)-imine] | 9.95 ± 1.03 | 21.3 ± 2.81 | 27.9 ± 3.97 | 14.9 ± 1.3 |  |  | 9.01 ± 1.32 |  |  |  |  | 10% ^c | 10% ^c | 70% ^c | 30% ^c | 35% ^c | 65% ^c | 44.7 ± 1.44 | 33.6 ± 2.01 |  |
| CC1=CC2C(=Nc3nnc(-c4ccc([N+](=O)[O-])cc4)s3)c3ccccc3NC2C=C1 (stereo not shown) [6i, 7-methyl-N-(5-(4-nitrophenyl)-1,3,4-thiadiazol-2-yl)-10,10a-dihydroacridin-9(8aH)-imine] | 22.9 ± 1.85 | 43.7 ± 2.36 | 36.4 ± 3.15 | 29.9 ± 2.45 |  |  |  |  |  |  |  | 0% | 0% | 10% ^b | 0% | 25% ^c | 0% | 92 ± 2.99 | > 100 | mortality rate of zebrafish embryos (zebrafish embryos): 0%; malformation rate of zebrafish embryos (zebrafish embryos; 2.0 mg.L^−1): 25% |
| N.N.[Cl][Pt][Cl] [cis-platinum, reference compound] |  |  |  |  |  | 10.8 ± 0.34 | 16 ± 1.53 | 10 ± 0.52 | 7.13 ± 1.24 | 9.13 ± 1.54 | 21.4 ± 1.25 |  |  |  |  |  |  |  |  |  |

Continued, in another order:

| IC50 ([2]; Homo sapiens, MGC-803, MTT) [µM] | IC50 ([3]; Homo sapiens) [µM] | IC50 ([4]; Homo sapiens) [µM] | IC50 ([5]; Homo sapiens) [µM] | melting point [°C] | Compound | IC50 [1] [µM] | IC50 ([2]; MTT) [µM] | IC50 [3] [µM] | IC50 [4] [µM] | IC50 [5] [µM] | IC50 [6] [µM] | MAR (malformation rate) (zebrafish embryos; 1 mg/mL) | MOR (mortality rate) (zebrafish embryos; 1 mg/mL) | MAR (malformation rate) (zebrafish embryos; 1.5 mg/mL) | MOR (mortality rate) (zebrafish embryos; 1.5 mg/mL) | MAR (malformation rate) (zebrafish embryos; 2 mg/mL) | MOR (mortality rate) (zebrafish embryos; 2 mg/mL) | IC50 ([1]; Homo sapiens, Fibroblast) [µM] | IC50 ([6]; Homo sapiens) [µM] | further results |
| --- | --- | --- | --- | --- | --- | --- | --- | --- | --- | --- | --- | --- | --- | --- | --- | --- | --- | --- | --- | --- |
| 22.4 ± 1.32 | 22.1 ± 2.72 | 36.5 ± 2.96 | 21.2 ± 2.72 | 272 to 273 | COc1ccc2nc3ccccc3c(-n3c(-c4ccncc4)n[nH]c3=S)c2c1 [5a, 4-(2-methoxyacridin-9-yl)-5-(pyridin-4-yl)-2,4-dihydro-3H-1,2,4-triazole-3-thione] |  |  |  |  |  |  |  |  |  |  |  |  | 74.5 ± 4.03 | 42 ± 2.31 |  |
| 15.8 ± 1.94 | 27.7 ± 2.97 | 42.1 ± 3.74 | 22.1 ± 1.85 | 259 to 261 | COc1ccc2nc3ccccc3c(-n3c(-c4ccccc4)n[nH]c3=S)c2c1 [5b, 4-(2-methoxyacridin-9-yl)-5-phenyl-2,4-dihydro-3H-1,2,4-triazole-3-thione] |  |  |  |  |  |  |  |  |  |  |  |  | 53.6 ± 2.78 | 58.3 ± 3.25 |  |
| 15.2 ± 1.08 | 44.2 ± 2.68 | 58.8 ± 3.22 | 15.7 ± 1.58 | 264 to 268 | Cc1ccc2nc3ccccc3c(-n3c(-c4ccncc4)n[nH]c3=S)c2c1 [5f, 4-(2-methylacridin-9-yl)-5-(pyridin-4-yl)-2,4-dihydro-3H-1,2,4-triazole-3-thione] |  |  |  |  |  |  |  |  |  |  |  |  | 69.2 ± 2.16 | 46.8 ± 2.93 |  |
|  | 20.5 ± 1.13 | 30.6 ± 2.21 | 19.4 ± 2.17 | 292 to 293 | Cc1ccc2nc3ccccc3c(-n3c(-c4ccccc4)n[nH]c3=S)c2c1 [5g, 4-(2-methylacridin-9-yl)-5-phenyl-2,4-dihydro-3H-1,2,4-triazole-3-thione] |  |  |  |  |  |  |  |  |  |  |  |  | 68.3 ± 2.74 | 44.6 ± 2.35 |  |
| 8.92 ± 0.99 | 31.7 ± 2.36 | 28.3 ± 1.32 | 14.3 ± 1.27 | 245 to 247 | Cc1ccc2nc3ccccc3c(-n3c(-c4ccc([N+](=O)[O-])cc4)n[nH]c3=S)c2c1 [5i, 4-(2-methylacridin-9-yl)-5-(4-nitrophenyl)-2,4-dihydro-3H-1,2,4-triazole-3-thione] |  |  |  |  |  |  |  |  |  |  |  |  | 70.9 ± 2.99 | > 100 |  |
| 23.3 ± 1.97 | 32.3 ± 2.82 | 47.5 ± 3.51 | 49.4 ± 4.59 | 263 to 265 | COC1=CC2C(=Nc3nnc(-c4ccccc4)s3)c3ccccc3NC2C=C1 (stereo not shown) [6b, 7-methoxy-N-(5-phenyl-1,3,4-thiadiazol-2-yl)-10,10a-dihydroacridin-9(8aH)-imine] |  |  |  |  |  |  |  |  |  |  |  |  | 79.3 ± 2.48 | > 100 |  |
